Test results reported in patent US20100298141A1, “SUBSTITUTED PYRIDINE N-OXIDE HERBICIDES” (E. I. DU PONT DE NEMOURS AND COMPANY, priority 2007, published 2010).

What was measured:
yellow nutsedge = assay: Test C pre-/postemergence test; format: in vivo, Cyperus esculentus
Method in brief: (§1)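 Seeds were planted and treated preemergence with test chemical in a non-phytotoxic solvent mixture containing surfactant. Postemergence applications of the same formulation went onto plants 2 to 18 cm tall (1- to 4-leaf stage). A dash marks no test result.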

downy brome = assay: Test C pre-/postemergence test; format: in vivo, Bromus tectorum
Method in brief: as §1

common ragweed = assay: Test C pre-/postemergence test; format: in vivo, Ambrosia elation
Method in brief: as §1

giant foxtail [1] = assay: Test A pre-/postemergence greenhouse test; format: in vivo, Setaria faberi; conditions: for Foxtail, Giant plant response rating: 0 to 100 scale; for Plant response rating, Foxtail, Giant: 0 to 100 scale where 0 is no effect and 100 is complete control
Method in brief: (§2)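 Greenhouse herbicide screen, pre- and postemergence in parallel. Soil: loam plus sand. Formulation: non-phytotoxic solvent mix with surfactant. Postemergence stage: one to two leaves, 2–10 cm height. Evaluation: visual injury, compared with untreated controls, about 10 days after treatment.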

woolly cupgrass = assay: Test C pre-/postemergence test; format: in vivo, Eriochloa villosa
Method in brief: as §1

crabgrass = assay: Test A pre-/postemergence greenhouse test; format: in vivo, Digitaria sanguinalis; conditions: for Crabgrass, Large plant response rating: 0 to 100 scale; for Plant response rating, Crabgrass, Large: 0 to 100 scale where 0 is no effect and 100 is complete control
Method in brief: as §2

soybean = assay: Test C pre-/postemergence test; format: in vivo, Glycine max
Method in brief: as §1

johnsongrass = assay: Test C pre-/postemergence test; format: in vivo, Sorghum halepense
Method in brief: as §1

lambsquarters = assay: Test C pre-/postemergence test; format: in vivo, Chenopodium album
Method in brief: as §1

morningglory [2] = assay: Test C pre-/postemergence test; format: in vivo, Ipomoea coccinea
Method in brief: as §1

umbrella sedge = assay: Test C flooded paddy test; format: in vivo, Cyperus difformis; conditions: Flood
Method in brief: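 Under a constant 3 cm flood, test compounds went directly into the paddy water. Following 13 to 15 days of greenhouse growth, treated species and controls were compared by eye.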

Goosegrass = assay: Test C pre-/postemergence test; format: in vivo, Eleusin indica
Method in brief: as §1

morningglory [3] = assay: Test A pre-/postemergence greenhouse test; format: in vivo, Ipomoea spp.; conditions: for Morningglory plant response rating: 0 to 100 scale; for Plant response rating, Morningglory: 0 to 100 scale where 0 is no effect and 100 is complete control
Method in brief: as §2

cocklebur = assay: Test C pre-/postemergence test; format: in vivo, Xanthium strumarium
Method in brief: as §1

giant foxtail [4] = assay: Test C pre-/postemergence test; format: in vivo, Setaria faberii
Method in brief: as §1

corn = assay: Test C pre-/postemergence test; format: in vivo, Zea mays
Method in brief: as §1

wheat = assay: Test A pre-/postemergence greenhouse test; format: in vivo, Triticum aestivum; conditions: for Wheat plant response rating: 0 to 100 scale; for Plant response rating, Wheat: 0 to 100 scale where 0 is no effect and 100 is complete control
Method in brief: as §2

[5] = 31 g ai/ha, Preemergence, scale 0 to 100
[6] = 62 g ai/ha, preemergence, scale 0 (no effect) to 100 (complete control)
[7] = preemergence, 125 g ai/ha, scale 0 (no effect) to 100 (complete control)
[8] = Postemergence, 125 g ai/ha, 0 is no effect, 100 is complete control
[9] = Postemergence, 500 g ai/ha, 0 is no effect, 100 is complete control
[10] = Preemergence, 125 g ai/ha, 0 no effect, 100 complete control
[11] = 31 g ai/ha, scale 0 to 100 (0 no effect, 100 complete control)
[12] = 62 g ai/ha, scale 0 to 100, 0 no effect, 100 complete control, 13 to 15 days
[13] = 125 g ai/ha, scale 0 to 100, 0 no effect, 100 complete control, 13 to 15 days
[14] = 62 g ai/ha, Preemergence, scale 0 to 100
[15] = 125 g ai/ha, preemergence, scale 0 (no effect) to 100 (complete control)
[16] = Preemergence, 31 g ai/ha, scale 0 to 100 (0 no effect, 100 complete control)
[17] = preemergence, 250 g ai/ha, scale 0 (no effect) to 100 (complete control)

SMILES: Cc1cc[n+]([O-])c(S(=O)(=O)C(C)c2c(C(F)(F)F)nn(C)c2Cl)c1 (racemic) [Compound 14]
- Nutsedge, Yellow plant response rating (yellow nutsedge; [5]): 40
- Nutsedge, Yellow plant response rating (yellow nutsedge; [6]): 70
- Plant response rating (0 to 100), Nutsedge, Yellow (yellow nutsedge; Preemergence, 250 g ai/ha): 100
- Nutsedge, Yellow plant response rating (yellow nutsedge; [7]): 98
- Bromegrass, Downy plant response rating (downy brome; [5]): 30
- Bromegrass, Downy plant response rating (downy brome; [6]): 35
- Plant response rating (0 to 100), Bromegrass, Downy (downy brome; Preemergence, 250 g ai/ha): 70
- Bromegrass, Downy plant response rating (downy brome; [7]): 70
- Ragweed plant response rating (common ragweed; [5]): 0
- Ragweed plant response rating (common ragweed; [6]): 85
- Plant response rating (0 to 100), Ragweed (common ragweed; Preemergence, 250 g ai/ha): 100
- Ragweed plant response rating (common ragweed; [7]): 85
- Foxtail, Giant plant response rating (giant foxtail [1]; [8]): 70
- Foxtail, Giant plant response rating (giant foxtail [1]; [9]): 80
- Foxtail, Giant plant response rating (giant foxtail [1]; [10]): 90
- Plant response rating, Foxtail, Giant (giant foxtail [1]; Preemergence, 500 g ai/ha): 100
- Cupgrass, Woolly plant response rating (woolly cupgrass; [5]): 85
- Cupgrass, Woolly plant response rating (woolly cupgrass; [6]): 85
- Plant response rating (0 to 100), Cupgrass, Woolly (woolly cupgrass; Preemergence, 250 g ai/ha): 100
- Cupgrass, Woolly plant response rating (woolly cupgrass; [7]): 90
- Crabgrass, Large plant response rating (crabgrass; [8]): 40
- Crabgrass, Large plant response rating (crabgrass; [9]): 70
- Crabgrass, Large plant response rating (crabgrass; [10]): 90
- Plant response rating, Crabgrass, Large (crabgrass; Preemergence, 500 g ai/ha): 100
- Soybean plant response rating (soybean; [5]): 0
- Soybean plant response rating (soybean; [6]): 0
- Plant response rating (0 to 100), Soybean (soybean; Preemergence, 250 g ai/ha): 85
- Soybean plant response rating (soybean; [7]): 5
- Johnsongrass plant response rating (johnsongrass; [5]): 45
- Johnsongrass plant response rating (johnsongrass; [6]): 60
- Plant response rating (0 to 100), Johnsongrass (johnsongrass; Preemergence, 250 g ai/ha): 100
- Johnsongrass plant response rating (johnsongrass; [7]): 100
- Lambsquarters plant response rating (lambsquarters; [5]): 30
- Lambsquarters plant response rating (lambsquarters; [6]): 100
- Plant response rating (0 to 100), Lambsquarters (lambsquarters; Preemergence, 250 g ai/ha): 100
- Lambsquarters plant response rating (lambsquarters; [7]): 100
- Morningglory plant response rating (morningglory [2]; [5]): 5
- Morningglory plant response rating (morningglory [2]; [6]): 98
- Plant response rating (0 to 100), Morningglory (morningglory [2]; Preemergence, 250 g ai/ha): 100
- Morningglory plant response rating (morningglory [2]; [7]): 100
- Plant response rating, Sedge, Umbrella (umbrella sedge; [11]): 75
- Plant response rating, Sedge, Umbrella (umbrella sedge; [12]): 85
- Plant response rating, Sedge, Umbrella (umbrella sedge; [13]): 100
- Plant response rating, Sedge, Umbrella (umbrella sedge; 250 g ai/ha, scale 0 to 100 (0 no effect, 100 complete control)): 100
- Goosegrass plant response rating (Goosegrass; [5]): 100
- Goosegrass plant response rating (Goosegrass; [6]): 100
- Plant response rating (0 to 100), Goosegrass (Goosegrass; Preemergence, 250 g ai/ha): 100
- Goosegrass plant response rating (Goosegrass; [7]): 100
- Morningglory plant response rating (morningglory [3]; [8]): 30
- Morningglory plant response rating (morningglory [3]; [9]): 50
- Morningglory plant response rating (morningglory [3]; [10]): 10
- Plant response rating, Morningglory (morningglory [3]; Preemergence, 500 g ai/ha): 100
- Cocklebur plant response rating (cocklebur; [5]): 0
- Cocklebur plant response rating (cocklebur; [6]): 0
- Plant response rating (0 to 100), Cocklebur (cocklebur; Preemergence, 250 g ai/ha): 10
- Cocklebur plant response rating (cocklebur; [7]): 10
- Foxtail, Giant plant response rating (giant foxtail [4]; [5]): 85
- Foxtail, Giant plant response rating (giant foxtail [4]; [6]): 85
- Plant response rating (0 to 100), Foxtail, Giant (giant foxtail [4]; Preemergence, 250 g ai/ha): 100
- Foxtail, Giant plant response rating (giant foxtail [4]; [7]): 100
- Corn plant response rating (corn; [5]): 0
- Corn plant response rating (corn; [6]): 20
- Plant response rating (0 to 100), Corn (corn; Preemergence, 250 g ai/ha): 80
- Corn plant response rating (corn; [7]): 60
- Wheat plant response rating (wheat; [8]): 40
- Wheat plant response rating (wheat; [9]): 50
- Wheat plant response rating (wheat; [10]): 40
- Plant response rating, Wheat (wheat; Preemergence, 500 g ai/ha): 60

SMILES: Cn1nc(C(F)(F)F)c(C[S+]([O-])c2cc(Br)cc[n+]2[O-])c1Cl (racemic) [Compound 35]
- Nutsedge, Yellow plant response rating (yellow nutsedge; [14]): 60
- Nutsedge, Yellow plant response rating (yellow nutsedge; [15]): 90
- Plant response rating, Nutsedge, Yellow (yellow nutsedge; [16]): 0
- Nutsedge, Yellow plant response rating (yellow nutsedge; [17]): 100
- Bromegrass, Downy plant response rating (downy brome; [14]): 0
- Bromegrass, Downy plant response rating (downy brome; [15]): 0
- Plant response rating, Bromegrass, Downy (downy brome; [16]): 0
- Bromegrass, Downy plant response rating (downy brome; [17]): 30
- Ragweed plant response rating (common ragweed; [14]): 0
- Ragweed plant response rating (common ragweed; [15]): 50
- Plant response rating, Ragweed (common ragweed; [16]): 0
- Ragweed plant response rating (common ragweed; [17]): 85
- Foxtail, Giant plant response rating (giant foxtail [1]; [8]): 50
- Foxtail, Giant plant response rating (giant foxtail [1]; [9]): 80
- Foxtail, Giant plant response rating (giant foxtail [1]; [10]): 100
- Plant response rating, Foxtail, Giant (giant foxtail [1]; Preemergence, 500 g ai/ha): 100
- Cupgrass, Woolly plant response rating (woolly cupgrass; [14]): 80
- Cupgrass, Woolly plant response rating (woolly cupgrass; [15]): 85
- Plant response rating, Cupgrass, Woolly (woolly cupgrass; [16]): 0
- Cupgrass, Woolly plant response rating (woolly cupgrass; [17]): 100
- Crabgrass, Large plant response rating (crabgrass; [8]): 50
- Crabgrass, Large plant response rating (crabgrass; [9]): 80
- Crabgrass, Large plant response rating (crabgrass; [10]): 60
- Plant response rating, Crabgrass, Large (crabgrass; Preemergence, 500 g ai/ha): 80
- Soybean plant response rating (soybean; [14]): 0
- Soybean plant response rating (soybean; [15]): 10
- Plant response rating, Soybean (soybean; [16]): 0
- Soybean plant response rating (soybean; [17]): 60
- Johnsongrass plant response rating (johnsongrass; [14]): 90
- Johnsongrass plant response rating (johnsongrass; [15]): 100
- Plant response rating, Johnsongrass (johnsongrass; [16]): 50
- Johnsongrass plant response rating (johnsongrass; [17]): 100
- Lambsquarters plant response rating (lambsquarters; [14]): 100
- Lambsquarters plant response rating (lambsquarters; [15]): 100
- Plant response rating, Lambsquarters (lambsquarters; [16]): 100
- Lambsquarters plant response rating (lambsquarters; [17]): 100
- Morningglory plant response rating (morningglory [2]; [14]): 0
- Morningglory plant response rating (morningglory [2]; [15]): 80
- Plant response rating, Morningglory (morningglory [2]; [16]): 0
- Morningglory plant response rating (morningglory [2]; [17]): 85
- Plant response rating, Sedge, Umbrella (umbrella sedge; [11]): 80
- Plant response rating, Sedge, Umbrella (umbrella sedge; [12]): 90
- Plant response rating, Sedge, Umbrella (umbrella sedge; [13]): 95
- Plant response rating, Sedge, Umbrella (umbrella sedge; 250 g ai/ha, scale 0 to 100, 0 no effect, 100 complete control, 13 to 15 days): 95
- Goosegrass plant response rating (Goosegrass; [14]): 100
- Goosegrass plant response rating (Goosegrass; [15]): 100
- Plant response rating, Goosegrass (Goosegrass; [16]): 80
- Goosegrass plant response rating (Goosegrass; [17]): 100
- Morningglory plant response rating (morningglory [3]; [8]): 40
- Morningglory plant response rating (morningglory [3]; [9]): 70
- Morningglory plant response rating (morningglory [3]; [10]): 50
- Plant response rating, Morningglory (morningglory [3]; Preemergence, 500 g ai/ha): 80
- Cocklebur plant response rating (cocklebur; [14]): 0
- Cocklebur plant response rating (cocklebur; [15]): 0
- Cocklebur plant response rating (cocklebur; [17]): 0
- Foxtail, Giant plant response rating (giant foxtail [4]; [14]): 60
- Foxtail, Giant plant response rating (giant foxtail [4]; [15]): 75
- Plant response rating, Foxtail, Giant (giant foxtail [4]; [16]): 40
- Foxtail, Giant plant response rating (giant foxtail [4]; [17]): 98
- Corn plant response rating (corn; [14]): 10
- Corn plant response rating (corn; [15]): 30
- Plant response rating, Corn (corn; [16]): 10
- Corn plant response rating (corn; [17]): 65
- Wheat plant response rating (wheat; [8]): 40
- Wheat plant response rating (wheat; [9]): 50
- Wheat plant response rating (wheat; [10]): 30
- Plant response rating, Wheat (wheat; Preemergence, 500 g ai/ha): 50
